Source: patent EP2818472A1, “Imidazo[4,5-c]pyridine and pyrrolo[3,2-c]pyridine compounds as G-protein-coupled receptor kinase 5 (GRK5) modulators” (Max-Planck-Gesellschaft zur Förderung der Wissenschaften …, priority 2013, dated 2014)

Each molecule was assayed on beta-TC6 cells (assay: Insulin HTRF assay (relative activity Ar) in beta-TC6 cells). Conditions: Mus musculus, Beta-TC6, 4 h, insulin HTRF, supernatant of beta-TC6 cells, incubation with test compound at 37°C for 2, 3, 4h; read-out: Ar (relative activity).
Type: cell-based, mouse
In short: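 beta-TC6 cells (15k/well, seeded 24 or 48 h) washed, then exposed to compound in induction buffer (0.5% DMSO final) for 2, 3 or 4 h at 37°C.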
In the case of `NC(=O)c1ccc(Nc2nccc3[nH]c(-c4ccccc4)cc23)cc1` [Compound 318, 4-[(2-phenyl-1H-pyrrolo[3,2-c]pyridin-4-yl)amino]benzamide], the Emax is reported as > 100%.
For `c1ccc(-c2cc3c(Nc4cccnc4)nccc3[nH]2)cc1` [Compound 319, 2-phenyl-N-(3-pyridyl)-1H-pyrrolo[3,2-c]pyridin-4-amine], the Emax was 50 to 100%.
With `CN1CCN(c2ccc(Nc3nccc4[nH]c(-c5ccccc5)cc34)cc2)CC1` [Compound 320, N-[4-(4-methylpiperazin-1-yl)phenyl]-2-phenyl-1H-pyrrolo[3,2-c]pyridin-4-amine] the Emax was 30 to 50%.
In the case of `c1ccc(-c2cc3c(Nc4ccccn4)nccc3[nH]2)cc1` [Compound 321, 2-phenyl-N-(2-pyridyl)-1H-pyrrolo[3,2-c]pyridin-4-amine], the Emax is reported as 30 to 50%.
`CN(C)C(=O)c1ccc(Nc2nccc3[nH]c(-c4ccccc4)cc23)cc1` [Compound 322, N,N-dimethyl-4-[(2-phenyl-1 H-pyrrolo[3,2-c]pyridin-4-yl)amino]benzamide] was tested, and the Emax was > 100%.
`CC(=O)Nc1cccc(Nc2nccc3[nH]c(-c4ccccc4)cc23)c1` [Compound 323, N-[3-[(2-phenyl-1 H-pyrrolo[3,2-c]pyridin-4-yl)amino]phenyl]acetamide] showed an Emax of 50 to 100%.
`CS(=O)(=O)c1ccc(Nc2nccc3[nH]c(-c4ccccc4)cc23)cc1` [Compound 324, N-(4-methylsulfonylphenyl)-2-phenyl-1H-pyrrolo[3,2-c]pyridin-4-amine] showed an Emax of 50 to 100%.
`Cn1c(-c2ccccc2)cc2c(Nc3ccc(C(N)=O)cc3)nccc21` [Compound 325, 4-[(1-methyl-2-phenyl-pyrrolo[3,2-c]pyridin-4-yl)amino]benzamide] was tested, and the Emax was 30 to 50%.
`COc1ccc(Nc2nccc3c2cc(-c2ccccc2)n3C)cc1OC` [Compound 326, N-(3,4-dimethoxyphenyl)-1-methyl-2-phenyl-pyrrolo[3,2-c]pyridin-4-amine] showed an Emax of 30 to 50%.
Work on `Cn1c(-c2ccccc2)cc2c(Nc3ccccn3)nccc21` [Compound 327, 1-methyl-2-phenyl-N-(2-pyridyl)pyrrolo[3,2-c]pyridin-4-amine] yielded an Emax of 50 to 100%.
With `Cn1c(-c2ccccc2)cc2c(Nc3cccc(O)c3)nccc21` [Compound 328, 3-[(1-methyl-2-phenyl-pyrrolo[3,2-c]pyridin-4-yl)amino]phenol] the Emax was 30 to 50%.
With `COc1cc(Nc2nccc3[nH]c(-c4ccccc4)nc23)cc(OC)c1OC` [Compound 329, 2-phenyl-N-(3,4,5-trimethoxyphenyl)-1H-imidazo[4,5-c]pyridin-4-amine] the Emax was 50 to 100%.
In the case of `COc1ccc(Nc2nccc3[nH]c(-c4ccccc4)nc23)cc1OC` [Compound 330, N-(3,4-dimethoxyphenyl)-2-phenyl-1H-imidazo[4,5-c]pyridin-4-amine], the Emax is reported as > 100%.
`CN(C)c1cccc(Nc2nccc3[nH]c(-c4ccccc4)nc23)c1` [Compound 331, N1,N1-dimethyl-N3-(2-phenyl-1H-imidazo[4,5-c]pyridin-4-yl)benzene-1,3-diamine] gave an Emax of 50 to 100%.
Molecule `c1ccc(-c2nc3c(NCCc4ccccn4)nccc3[nH]2)cc1` [Compound 332, 2-phenyl-N-[2-(2-pyridyl)ethyl]-1H-imidazo[4,5-c]pyridin-4-amine] has an Emax of 30 to 50%.
`COc1ccc(Nc2nccc3[nH]c(-c4ccccc4)nc23)cc1` [Compound 333, N-(4-methoxyphenyl)-2-phenyl-1H-imidazo[4,5-c]pyridin-4-amine] gave an Emax of 50 to 100%.
For `CN1CCN(c2nccc3[nH]c(-c4ccccc4)nc23)CC1` [Compound 334, 4-(4-methylpiperazin-1-yl)-2-phenyl-1H-imidazo[4,5-c]pyridine], the Emax was 30 to 50%.
`c1ccc(-c2nc3c(NCc4ccncc4)nccc3[nH]2)cc1` [Compound 335, 2-phenyl-N-(4-pyridylmethyl)-1H-imidazo[4,5-c]pyridin-4-amine] showed an Emax of 0 to 30%.
`CS(=O)(=O)c1cccc(Nc2nccc3[nH]c(-c4ccccc4)nc23)c1` [Compound 336, N-(3-methylsulfonylphenyl)-2-phenyl-1H-imidazo[4,5-c]pyridin-4-amine] was tested, and the Emax was 30 to 50%.
`Oc1cccc(Nc2nccc3[nH]c(-c4ccccc4)nc23)c1` [Compound 337, 3-[(2-phenyl-1H-imidazo[4,5-c]pyridin-4-yl)amino]phenol] gave an Emax of 30 to 50%.
`c1ccc(-c2nc3c(N4CCOCC4)nccc3[nH]2)cc1` [Compound 338, 4-(2-phenyl-1H-imidazo[4,5-c]pyridin-4-yl)morpholine] gave an Emax of 30 to 50%.
`c1ccc(-c2nc3c(NCC4CC4)nccc3[nH]2)cc1` [Compound 339, N-(cyclopropylmethyl)-2-phenyl-1H-imidazo[4,5-c]pyridin-4-amine] gave an Emax of 30 to 50%.
`COCCCNc1nccc2[nH]c(-c3ccccc3)nc12` [Compound 340, N-(3-methoxypropyl)-2-phenyl-1H-imidazo[4,5-c]pyridin-4-amine] showed an Emax of 30 to 50%.
`COc1cccc(Nc2nccc3[nH]c(-c4ccc(OC)c(OC)c4)nc23)c1` [Compound 341, 2-(3,4-dimethoxyphenyl)-N-(3-methoxyphenyl)-1H-imidazo[4,5-c]pyridin-4-amine] gave an Emax of 50 to 100%.
`COc1ccc(-c2nc3c(Nc4ccccc4)nccc3[nH]2)cc1OC` [Compound 342, 2-(3,4-dimethoxyphenyl)-N-phenyl-1H-imidazo[4,5-c]pyridin-4-amine] was tested, and the Emax was 50 to 100%.
Work on `COc1ccc(-c2nc3c(Nc4cccc(N(C)C)c4)nccc3[nH]2)cc1OC` [Compound 343, N1-[2-(3,4-dimethoxyphenyl)-1H-imidazo[4,5-c]pyridin-4-yl]-N3,N3-dimethyl-benzene-1,3-diamine] yielded an Emax of 50 to 100%.
Molecule `COc1ccc(-c2nc3c(NCC(C)C)nccc3[nH]2)cc1OC` [Compound 344, 2-(3,4-dimethoxyphenyl)-N-isobutyl-1H-imidazo[4,5-c]pyridin-4-amine] has an Emax of 30 to 50%.
In the case of `COc1ccc(Nc2nccc3[nH]c(-c4ccc(OC)c(OC)c4)nc23)cc1` [Compound 345, 2-(3,4-dimethoxyphenyl)-N-(4-methoxyphenyl)-1H-imidazo[4,5-c]pyridin-4-amine], the Emax is reported as > 100%.
With `COc1ccc(-c2nc3c(N4CCN(C)CC4)nccc3[nH]2)cc1OC` [Compound 346, 2-(3,4-dimethoxyphenyl)-4-(4-methylpiperazin-1-yl)-1H-imidazo[4,5-c]pyridine] the Emax was 50 to 100%.
`COc1ccc(-c2nc3c(NCc4ccccc4)nccc3[nH]2)cc1OC` [Compound 347, N-benzyl-2-(3,4-dimethoxyphenyl)-1H-imidazo[4,5-c]pyridin-4-amine] gave an Emax of 50 to 100%.
Molecule `COc1ccc(-c2nc3c(NC4CCC(O)CC4)nccc3[nH]2)cc1OC` (stereo not shown) [Compound 348, 4-[[2-(3,4-dimethoxyphenyl)-1H-imidazo[4,5-c]pyridin-4-yl]amino]cyclohexanol] has an Emax of 30 to 50%.
In the case of `COc1ccc(-c2nc3c(N(C)c4ccccc4)nccc3[nH]2)cc1OC` [Compound 349, 2-(3,4-dimethoxyphenyl)-N-methyl-N-phenyl-1H-imidazo[4,5-c]pyridin-4-amine], the Emax is reported as 30 to 50%.
Work on `COc1ccc(-c2nc3c(NCc4ccc(N(C)C)cc4)nccc3[nH]2)cc1OC` [Compound 350, 2-(3,4-dimethoxyphenyl)-N-[(4-dimethylaminophenyl)methyl]-1H-imidazo[4,5-c]pyridin-4-amine] yielded an Emax of 30 to 50%.
`COc1ccc(-c2nc3c(Nc4cccc(S(C)(=O)=O)c4)nccc3[nH]2)cc1OC` [Compound 351, 2-(3,4-dimethoxyphenyl)-N-(3-methylsulfonylphenyl)-1H-imidazo[4,5-c]pyridin-4-amine] showed an Emax of 50 to 100%.
For `COc1ccc(-c2nc3c(Nc4cccc(O)c4)nccc3[nH]2)cc1OC` [Compound 352, 3-[[2-(3,4-dimethoxyphenyl)-1H-imidazo[4,5-c]pyridin-4-yl]amino]phenol], the Emax was > 100%.
`COc1ccc(-c2nc3c(N4CCOCC4)nccc3[nH]2)cc1OC` [Compound 353, 4-[2-(3,4-dimethoxyphenyl)-1H-imidazo[4,5-c]pyridin-4-yl]morpholine] showed an Emax of 50 to 100%.
With `COc1ccc(-c2nc3c(NCC4CC4)nccc3[nH]2)cc1OC` [Compound 354, N-(cyclopropylmethyl)-2-(3,4-dimethoxyphenyl)-1H-imidazo[4,5-c]pyridin-4-amine] the Emax was 50 to 100%.
Work on `COCCNc1nccc2[nH]c(-c3cccc(C(F)(F)F)c3)nc12` [Compound 355, N-(2-methoxyethyl)-2-[3-(trifluoromethyl)phenyl]-1H-imidazo[4,5-c]pyridin-4-amine] yielded an Emax of 30 to 50%.
In the case of `COc1ccc(Nc2nccc3[nH]c(-c4cccc(C(F)(F)F)c4)nc23)cc1` [Compound 356, N-(4-methoxyphenyl)-2-[3-(trifluoromethyl)phenyl]-1H-imidazo[4,5-c]pyridin-4-amine], the Emax is reported as > 100%.
With `FC(F)(F)c1cccc(-c2nc3c(NCCN4CCOCC4)nccc3[nH]2)c1` [Compound 357, N-(2-morpholinoethyl)-2-[3-(trifluoromethyl)phenyl]-1H-imidazo[4,5-c]pyridin-4-amine] the Emax was 30 to 50%.
`COc1cccc(Nc2nccc3[nH]c(-c4cccnc4)nc23)c1` [Compound 358, N-(3-methoxyphenyl)-2-(3-pyridyl)-1H-imidazo[4,5-c]pyridin-4-amine] was tested, and the Emax was 50 to 100%.
Molecule `CCN(CC)CCNC(=O)c1ccc(Nc2nccc3[nH]c(-c4cccnc4)nc23)cc1` [Compound 359, N-(2-diethylaminoethyl)-4-[[2-(3-pyridyl)-1H-imidazo[4,5-c]pyridin-4-yl]amino]benzamide] has an Emax of 30 to 50%.
`c1ccc(CNc2nccc3[nH]c(-c4cccnc4)nc23)cc1` [Compound 360, N-benzyl-2-(3-pyridyl)-1H-imidazo[4,5-c]pyridin-4-amine] gave an Emax of 0 to 30%.
In the case of `COc1ccc(Nc2nccc3[nH]c(-c4cccc(O)c4)nc23)cc1` [Compound 362, 3-[4-(4-methoxyanilino)-1H-imidazo[4,5-c]pyridin-2-yl]phenol], the Emax is reported as 50 to 100%.
In the case of `Oc1cccc(-c2nc3c(N4CCOCC4)nccc3[nH]2)c1` [Compound 363, 3-(4-morpholino-1H-imidazo[4,5-c]pyridin-2-yl)phenol], the Emax is reported as 30 to 50%.
Molecule `COc1cc(Nc2nccc3[nH]c(-c4ccc(O)cc4)nc23)cc(OC)c1OC` [Compound 364, 4-[4-(3,4,5-trimethoxyanilino)-1H-imidazo[4,5-c]pyridin-2-yl]phenol] has an Emax of 50 to 100%.
